Assay [1] concerns Collagen 17A. Description: Collagen 17A immunofluorescence in normal human epidermal keratinocyte (NHEK) culture. The settings on record: 24 hrs; for expression of Collagen 17A in NHEKs: vs vehicle. In kind it is cell-based. On the procedure: (§1) Primary adult normal human epidermal keratinocytes (NHEK) were cultured in serum-free Keratinocyte Growth Medium 2 (KGM2) up to passage 6 and were seeded on glass slides at a density of 15-20×10^3 cells/cm^2. The next day, the KGM2 culture medium was changed and supplemented with hereafter indicated compounds, their combination or ethanol as vehicle control.
(§2) For application of the active to the medium (systemic application), 2,5-dimethylpyrazine (DMP), a TRPM5 activator, the DMP stock was dissolved at 37° C. at a final concentration of 10, 12.5 or 100 nM in KGM2. For triphenylphosphine oxide (TPPO), a TRPM5 inhibitor, a stock was prepared in ethanol and dissolved at 37° C. at a final concentration of 50 μM in KGM2. After 24 hours, NHEKs were washed in PBS and then either fixed in 4% formaldehyde for 10 minutes are room temperature (immunofluorescence labeling) or lysed in Buffer RLT containing 1% β-mercaptoethanol (for quantitative RT-qPCR).
For the detection of Collagen 17A in cell cultures, formalin-fixed NHEKs were permeabilized in PBS containing 0.05% Triton™ X-100 for 10 minutes, rinsed in PBS and then blocked in PBS containing 10% normal goat serum (NGS) for 20 minutes. Next, samples were incubated with an anti-Collagen 17A diluted 1:100 in antibody diluent overnight at 4° C. After consecutive rinses with PBS, samples were incubated with Alexa fluorophore-conjugated secondary antibodies diluted 1:500 in antibody diluent containing 2% NGS for 45 minutes at room temperature. […]
For the analysis on NHEKs, images were then obtained with a digital microscope (Keyence). Quantitative immunohistomorphometric analysis was performed by assessing the number of positive cells or the relative fluorescence intensity in standardized reference areas with ImageJ (NIH; Bethesda, MD, USA). Briefly, for the evaluation of Collagen 17A, the relative target-specific intensity was measured in 14-20 cells per microscopic field. For each parameter 14-20 microscopic fields were evaluated.

Assay [2] has as its system KRT15. Description: KRT15 mRNA by RT-qPCR in NHEK culture. Format: cell-based, human. The note with it: DMP 100 nM, 24 hrs, normalized to GAPDH, vs vehicle. On the procedure: as §1
(§3) For application of the active to the medium (systemic application), 2,5-dimethylpyrazine (DMP), a TRPM5 activator, the DMP stock was dissolved at 37° C. at a final concentration of 10, 12.5 or 100 nM in KGM2. […] After 24 hours, NHEKs were washed in PBS and then either fixed in 4% formaldehyde for 10 minutes are room temperature (immunofluorescence labeling) or lysed in Buffer RLT containing 1% β-mercaptoethanol (for quantitative RT-qPCR).
(§4) For the assessment of Collagen 17A and Cytokeratin 15 specific mRNA transcripts (COL17A, KRT15) by quantitative RT-qPCR technology, RNA was isolated from cells lysed in Buffer RLT containing 1% β-mercaptoethanol using the RNeasy Mini Kit according to the manufacturer's instructions. RNA purity and concentrations were determined using the BioDrop. […] Real-time quantitative polymerase chain reaction (qRT-PCR) was run in triplicate using TaqMan™ Fast Advanced Master Mix and TaqMan Gene Expression Assays on the QuantStudio. […]
(In qPCR the cycle at which signal appears reflects the starting amount.)

For assay [3], the system named is COL17A1. Description: COL17A1 mRNA by RT-qPCR in NHEK culture. In kind it is cell-based, human. The note with it: DMP 10 nM, 24 hrs, normalized to GAPDH, vs vehicle. On the procedure: as §1, §3, §4
The subject of assay [4] is Ki67. Description: Ki67 immunofluorescence, quantitative immunohistomorphometry in ex vivo human skin organ culture. Format: cell-based. The settings on record: 3 days. On the procedure: (§5) Samples of human abdominal, breast, temporal, and occipital skin were obtained with written patient consent and under ethical approval from healthy adult human subjects during elective plastic surgery performed for cosmetic reasons. Full-thickness human skin samples were prepared as 4-6 mm punches, placed on filter paper, and cultured at the air-liquid interphase under serum-free conditions in William's E medium supplemented only with penicillin-streptomycin, insulin, hydrocortisone and L-glutamine, as described previously. […]
(§6) Images were then obtained with a digital microscope (Keyence). Quantitative immunohistomorphometric analysis was performed by assessing the relative fluorescent or color intensity in standardized reference areas with ImageJ (NIH; Bethesda, MD, USA). […] Two skin punch biopsies were analyzed per experimental group unless indicated otherwise. […]
For the detection of Ki67, formalin-fixed human skin frozen sections were blocked with PBS containing 10% normal goat serum (NGS) for 30 minutes at room temperature and then incubated with an anti-Ki67 antibody diluted 1:800 in PBS containing 2% NGS overnight at 4° C. […] Image acquisition and quantitative immunohistomorphometric analysis were performed similar to as described above.

Assay [5] has as its system Phospho-Histone H3 Ser10 (pH3S10). Description: Phospho-Histone H3 Ser10 (pH3S10) positive cell count in NHEK culture. Format: cell-based, human. The settings on record: DMP 100 nM, 24 hrs, vs vehicle. On the procedure:
as §1
(§7) For application of the active to the medium (systemic application), 2,5-dimethylpyrazine (DMP), a TRPM5 activator, the DMP stock was dissolved at 37° C. at a final concentration of 10, 12.5 or 100 nM in KGM2. […] After 24 hours, NHEKs were washed in PBS and then either fixed in 4% formaldehyde for 10 minutes are room temperature (immunofluorescence labeling) or lysed in Buffer RLT containing 1% β-mercaptoethanol (for quantitative RT-qPCR). […]
For the analysis on NHEKs, images were then obtained with a digital microscope (Keyence). Quantitative immunohistomorphometric analysis was performed by assessing the number of positive cells or the relative fluorescence intensity in standardized reference areas with ImageJ (NIH; Bethesda, MD, USA). Briefly, for the evaluation of pH3S10, the number of cells with positive nuclear staining per field was counted and normalized to the total number of DAPI positive nuclei. For each parameter 14-20 microscopic fields were evaluated.

In assay [6] the test system is Ki67. Description: Ki67 positive cell count (proliferation) in NHEK culture. The settings on record: DMP 100 nM, 24 hrs, vs vehicle. Format: cell-based, human. The method, then: as §1, §7
For the analysis on NHEKs, images were then obtained with a digital microscope (Keyence). Quantitative immunohistomorphometric analysis was performed by assessing the number of positive cells or the relative fluorescence intensity in standardized reference areas with ImageJ (NIH; Bethesda, MD, USA). Briefly, for the evaluation of Ki67, the number of cells with positive nuclear staining per field was counted and normalized to the total number of DAPI positive nuclei. For each parameter 14-20 microscopic fields were evaluated.

Assay [7] relates to Sirtuin-1. Description: Sirtuin-1 immunohistochemistry, quantitative immunohistomorphometry in ex vivo human skin organ culture. The note with it: systemic (medium) DMP 12.5 μM, 3 days, vs vehicle. In kind it is cell-based.
The test system of assay [8] is Cytokeratin 15. Description: Cytokeratin 15 immunofluorescence, quantitative immunohistomorphometry in ex vivo human skin organ culture. In kind it is cell-based. The note with it: topical DMP 12.5 mM, 3 days, vs vehicle. The method, then: as §5, §6
After consecutive rinses with PBS, samples were incubated with Alexa fluorophore-conjugated secondary antibodies diluted 1:500 in antibody diluent containing 2% normal goat serum for 45 minutes at room temperature. […] Image acquisition and quantitative immunohistomorphometric analysis were performed similar to as described above.

Assay [9] deals with Lamin B1. Description: Lamin B1 immunofluorescence, quantitative immunohistomorphometry in ex vivo human skin organ culture. In kind it is cell-based. The settings on record: systemic (medium) DMP 12.5 μM, 3 days, vs vehicle.
Assay [10] relates to PGC1α. Description: PGC1α immunofluorescence, quantitative immunohistomorphometry in ex vivo human skin organ culture. In kind it is cell-based. The settings on record: systemic (medium) DMP 12.5 μM, 3 days, vs vehicle.
Assay [11] relates to Cytokeratin 15. Description: Cytokeratin 15 immunofluorescence in normal human epidermal keratinocyte (NHEK) culture. In kind it is cell-based. The note with it: 24 hrs; for expression of Cytokeratin 15 in NHEKs: vs vehicle. On the procedure:
as §1, §2
For the detection of Cytokeratin 15 in cell cultures, formalin-fixed NHEKs were permeabilized in PBS containing 0.05% Triton™ X-100 for 10 minutes, rinsed in PBS and then blocked in PBS containing 10% normal goat serum (NGS) for 20 minutes. Next, samples were incubated with an anti-Cytokeratin 15 diluted 1:100 in antibody diluent overnight at 4° C. After consecutive rinses with PBS, samples were incubated with Alexa fluorophore-conjugated secondary antibodies diluted 1:500 in antibody diluent containing 2% NGS for 45 minutes at room temperature. […]
For the analysis on NHEKs, images were then obtained with a digital microscope (Keyence). Quantitative immunohistomorphometric analysis was performed by assessing the number of positive cells or the relative fluorescence intensity in standardized reference areas with ImageJ (NIH; Bethesda, MD, USA). Briefly, for the evaluation of Cytokeratin 15, the relative target-specific intensity was measured in 14-20 cells per microscopic field. For each parameter 14-20 microscopic fields were evaluated.

Assay [12] concerns Collagen 17A. Description: Collagen 17A immunofluorescence, quantitative immunohistomorphometry in ex vivo human skin organ culture. Format: cell-based. The note with it: 3 days. The method, then:
Samples of human abdominal, breast, temporal, and occipital skin were obtained with written patient consent and under ethical approval from healthy adult human subjects during elective plastic surgery performed for cosmetic reasons. Full-thickness human skin samples were prepared as 4-6 mm punches, placed on filter paper, and cultured at the air-liquid interphase under serum-free conditions in William's E medium supplemented only with penicillin-streptomycin, insulin, hydrocortisone and L-glutamine, as described previously.
For modelling the application of the actives directly to the skin surface (topical application) 2,5-dimethylpyrazine (DMP), a TRPM5 activator was dissolved at 37° C. at a final concentration of 12.5 mM in a 50% v/v solution of Isopropanol in PBS containing 1 g/mL of Polyethylene glycol 6000. […]
as §6

Setting [13] is: topical DMP 12.5 mM, vs vehicle.
The mark [14] stands for this setting: topical TPPO 1.5 mM with topical DMP 12.5 mM.

Entries after “also recorded” stand apart in the source; their conditions may differ.

With `Cc1cnc(C)cn1` [DMP, 2,5-dimethylpyrazine], the “expression of Collagen 17A in NHEKs” value is listed as “markedly increases” in [1] (DMP 12.5 nM) and “upregulate” in assay [1] (DMP 100 nM). The “gene expression of KRT15 (RT-qPCR)” value in assay [2] is “markedly increases”. The “gene expression of COL17A1 (RT-qPCR)” value in [3] is “markedly increases”. Further, the “expression of Ki67 in the epidermis” value in assay [4] (setting [13]) is on record as “upregulate”. The “number of pH3S10 positive (dividing and proliferating) NHEKs” value in assay [5] is “markedly increases”. The “number of Ki67 positive (proliferating) NHEKs” value in [6] is “markedly increases”. Besides, the “expression of Sirtuin 1 in the epidermis” value in [7] was “markedly increases”. In addition, the “expression of Cytokeratin 15 in the basal layers of the epidermis” value in [8] is given as “markedly increases”. Further, in assay [9], the “expression of Lamin B1 in the epidermis” value was “markedly increases”. Further, the “expression of PGC1α in the epidermis” value in assay [10] was “markedly increases”. Further, the “expression of Cytokeratin 15 in NHEKs” value in assay [11] (DMP 12.5 nM) was “markedly increases”; in [11] (DMP 100 nM), “upregulate”. The “expression of Collagen 17A in the basal layers of the epidermis” value in assay [12] (setting [13]) is given as “upregulate; also recorded: markedly increases”.
For the compound `O=P(c1ccccc1)(c1ccccc1)c1ccccc1` [TPPO, triphenylphosphine oxide, reference compound], the “effect on DMP-induced upregulation of Collagen 17A expression” value in assay [1] (TPPO 50 μM with DMP 100 nM) and in [12] (setting [14]) was “prevented the effect” throughout. For the same compound, the “effect on DMP-induced upregulation of Ki67 expression” value in assay [4] (setting [14]) is “prevented the effect”. The “effect on DMP-induced upregulation of Cytokeratin 15 expression” value in [11] (TPPO 50 μM with DMP 100 nM) is reported as “prevented the effect”.

Source of the values: patent US20250177275A1, “ACTIVE AGENT MODULATING THE ACTIVITY OF AN ION CHANNEL FOR USE IN INHIBITION OF SKIN AGING” (Cutaneon - Skin & Hair Innovations GmbH, priority 2022, published 2025).
